Results reported in patent US20110305715A1, “ANTIBODIES TO 3-HYDROXYCOTININE AND METHODS OF USE THEREOF” (priority 2010, published 2011).
Converted amounts (≈) assume the structure as drawn.

Tests used:
[1] = tested on: 3-Hydroxycotinine MAb 22H9C7; assay: Competitive microplate ELISA (test principle #1) with immobilized 3HC MAb and 3HC-HRP tracer; details: for IC50: competitor vs 3HC-HRP for 3-Hydroxycotinine MAb 22H9C7; for Reactivity (%): calculated from IC50 values, 3-Hydroxycotinine MAb 22H9C7
Procedure: (§1) Competitive microplate EIA for quantification of COT (A) and 3HC (B) by test principle #1. Different concentrations of COT or 3HC and fifteen other NIC metabolites were incubated with an immobilized COT MAb or 3HC MAb in the presence of a constant amount of COT-HRP or 3HC-HRP. The binding of the COT-HRP or 3HC-HRP to its corresponding MAb was detected by the reaction of the HRP with peroxidase substrate. The graph illustrates an inhibition curve that was formed with various concentrations of authentic COT (A) and 3HC (B). Apparent COT or 3HC concentrations are inversely related to the OD450 value.
As for the anti-cotinine monoclonal antibody, above, specificity and sensitivity of the anti-3-hydroxycotinine monoclonal antibody (3HC MAb) was determined in competitive microplate ELISA with 3HC and a battery of NIC metabolites and tobacco alkaloids using 3HC-HRP as tracer. […] Apparent 3HC concentrations are inversely related to the OD450 value.

Cotinine MAb 3B11A4 = assay: Competitive microplate ELISA (test principle #1) with immobilized COT MAb and COT-HRP tracer; format: binding; details: for Reactivity (%): calculated from IC50 values, Cotinine MAb 3B11A4; for IC50: competitor vs COT-HRP for Cotinine MAb 3B11A4
Procedure: as §1
Specificity and sensitivity of the anti-cotinine monoclonal antibody (COT MAb) were determined in competitive microplate ELISA with COT and a battery of NIC metabolites and tobacco alkaloids using COT-HRP as tracer. […] Apparent COT concentrations are inversely related to the OD450 value.

## c1cncc(C2=NCCC2)c1 [Myosmine]
[1]
  IC50: >5,000 ng/mL
Cotinine MAb 3B11A4
  Reactivity (%): <1.5%
  IC50: >5,000 ng/mL

## CN1C(=O)CCC1c1ccc[n+](C2OC(C(=O)[O-])C(O)C(O)C2O)c1 (stereo not drawn) [Cotinine-gluconuride, cotinine-glucuronide]
[1]
  Reactivity (%): <1%
  IC50: >5,000 ng/mL
Cotinine MAb 3B11A4
  Reactivity (%): <1.5%
  IC50: >5,000 ng/mL

## C1=CCC(c2cccnc2)NC1 (stereo not drawn) [Anatabine]
[1]
  IC50: >5,000 ng/mL
Cotinine MAb 3B11A4
  Reactivity (%): <1.5%
  IC50: >5,000 ng/mL

## CN1C(=O)CC[C@H]1c1ccc[n+]([O-])c1 [Cotinine-N-Oxide, cotinine-N-oxide]
[1]
  Reactivity (%): <1%
  IC50: >5,000 ng/mL
Cotinine MAb 3B11A4
  Reactivity (%): <1.5%
  IC50: >5,000 ng/mL

## CN1CCCC1c1cccnc1 (stereo not drawn) [Nicotine]
[1]
  Reactivity (%): <1%
  IC50: >5,000 ng/mL
Cotinine MAb 3B11A4
  Reactivity (%): <1.5%
  IC50: >5,000 ng/mL

## O=C1CCC(c2cccnc2)N1 (stereo not drawn) [Norcotinine]
[1]
  IC50: >5,000 ng/mL
Cotinine MAb 3B11A4
  Reactivity (%): <1.5%
  IC50: >5,000 ng/mL

## c1cncc(-c2ccnc(-c3cccnc3)c2)c1 [Nicotelline]
[1]
  IC50: >5,000 ng/mL
Cotinine MAb 3B11A4
  Reactivity (%): <1.5%
  IC50: >5,000 ng/mL

## c1cncc([C@@H]2CCCN2)c1 [Nornicotine]
[1]
  IC50: >5,000 ng/mL
Cotinine MAb 3B11A4
  Reactivity (%): <1.5%
  IC50: >5,000 ng/mL

## CN1C(=O)CC[C@@]1(O)c1cccnc1 [5-Hydroxycotinine]
[1]
  Reactivity (%): <1%
  IC50: >5,000 ng/mL
Cotinine MAb 3B11A4
  Reactivity (%): 4.39%
  IC50: 1505.2 ng/mL (≈ 7.83 µM)

## CN1C(=O)C(O[C@@H]2O[C@H](C(=O)O)[C@@H](O)[C@H](O)[C@H]2O)CC1c1cccnc1 (stereo partly drawn) [3-Hydroxycotinine-gluconuride, 3-hydroxycotinine-glucuronide]
[1]
  Reactivity (%): <1%
  IC50: >5,000 ng/mL
Cotinine MAb 3B11A4
  Reactivity (%): <1.5%
  IC50: >5,000 ng/mL

## CN1CCCC1c1ccc[n+]([O-])c1 (stereo not drawn) [Nicotine-N-Oxide, Nicotine-N-oxide]
[1]
  Reactivity (%): <1%
  IC50: >5,000 ng/mL
Cotinine MAb 3B11A4
  Reactivity (%): <1.5%
  IC50: >5,000 ng/mL

## c1cncc(C2=NCCCC2)c1 [Anabaseine]
[1]
  IC50: >5,000 ng/mL
Cotinine MAb 3B11A4
  Reactivity (%): <1.5%
  IC50: >5,000 ng/mL

## Cn1cccc1-c1cccnc1 [Nicotyrine]
[1]
  IC50: >5,000 ng/mL
Cotinine MAb 3B11A4
  Reactivity (%): <1.5%
  IC50: >5,000 ng/mL

## CN1C(=O)C(O)C[C@H]1c1cccnc1 (stereo partly drawn) [3-Hydroxycotinine]
[1]
  Reactivity (%): 100%
  IC50: 39.8 ng/mL (≈ 0.207 µM)
Cotinine MAb 3B11A4
  Reactivity (%): 1.86%
  IC50: 3545.0 ng/mL (≈ 18.4 µM)

## CN1C(=O)CC[C@H]1c1cccnc1 [Cotinine]
[1]
  Reactivity (%): <1%
  IC50: >5,000 ng/mL
Cotinine MAb 3B11A4
  Reactivity (%): 100%
  IC50: 66.1 ng/mL (≈ 0.375 µM)

## CN1CCC[C@H]1c1ccc[n+]([C@@H]2O[C@H](C(=O)[O-])[C@@H](O)[C@H](O)[C@H]2O)c1 [Nicotine-gluconuride, Nicotine-glucuronide]
[1]
  Reactivity (%): <1%
  IC50: >5,000 ng/mL
Cotinine MAb 3B11A4
  Reactivity (%): <1.5%
  IC50: >5,000 ng/mL
